Reference: BigSolDB 2.1

O=C(O)c1ccc(C(=O)O)o1
Details | solubility (mole fraction)
in acetic acid, 303.55 K | 0.000242
in acetic acid, 313.25 K | 0.000319
in acetic acid, 322.95 K | 0.000471
in acetic acid, 332.75 K | 0.000656
in acetic acid, 342.45 K | 0.000874
in acetic acid, 352.25 K | 0.00111
in ethanol, 299.35 K | 0.00298
in ethanol, 305.35 K | 0.00337
in ethanol, 311.25 K | 0.004
in ethanol, 319.25 K | 0.00478
in ethanol, 323.15 K | 0.00526
in ethanol, 328.95 K | 0.0062
in ethanol, 334.75 K | 0.0072
in ethanol, 340.55 K | 0.00814
in ethanol, 346.35 K | 0.0093
in methanol, 297.35 K | 0.00371
in methanol, 303.35 K | 0.00408
in methanol, 309.35 K | 0.00484
in methanol, 315.25 K | 0.00563
in methanol, 321.15 K | 0.00661
in methanol, 326.85 K | 0.00758
in methanol, 332.65 K | 0.00884
in water, 303.55 K | 0.000141
in water, 313.25 K | 0.000195
in water, 322.95 K | 0.000302
in water, 332.75 K | 0.00047
in water, 342.45 K | 0.000672
in water, 352.25 K | 0.000873
